Laboratory results taken from patent US9663478B2, “Benzotriazine oxides as drugs targeting Mycobacterium tuberculosis” (priority 2011, dated 2017).
≈ marks a conversion by molar mass, not a printed value. Like-named read-outs stand apart in the source and are kept apart here.

Columns and labels:
Mtb H37Rv [1] = assay: TB MIC - SRI, resazurin-based microplate assay; format: cell-based, Mycobacterium tuberculosis; conditions: for MIC: Mycobacterium tuberculosis, H37RV
NRP Mtb H37Rv cells = assay: Low-oxygen recovery assay (LORA) MIC; format: cell-based, Mycobacterium tuberculosis; conditions: for MIC: Mycobacterium tuberculosis, H37RV, read-out: LORA MIC - ITR
Mtb H37Rv [2] = assay: TB MIC - ITR (UIC), Institute for Tuberculosis Research; format: cell-based, Mycobacterium tuberculosis; conditions: for MIC: Mycobacterium tuberculosis, H37RV, read-out: TB MIC - ITR
[3] = Tables 1-4 and text, read-out: TB MIC - SRI

Structure (SMILES) | MIC (Mtb H37Rv [1]; [3]) | MIC (NRP Mtb H37Rv cells; NRP Mtb, Tables 1-4 and text) | Vero Tox CC50 (Vero cells; African green monkey, 72 h) | MIC (Mtb H37Rv [2]; Tables 1-4) | other results
[O-][n+]1nc(N[C@@H]2C[C@H]3CC[C@@H]2C3)[n+]([O-])c2ccc(F)cc21 (racemic) [SRI-012280] |  |  |  |  | MIC (Mtb H37Rv [1]; Tables P1-P3, read-out: TB MIC - SRI): 0.312 µg/mL (≈ 1.07 µM); LORA MIC (NRP Mtb H37Rv cells; Tables P1, P2, non-replicating M. tuberculosis): 0.21 µg/mL; VERO Tox-SRI (Vero cells; African green monkey, 72 h): <2.5; TB MIC - UIC (Mtb H37Rv [2]; Tables P1, P2): < 0.125 µg/mL
COCCNC(=O)c1ccc2c(c1)[n+]([O-])c(C(C)=O)c(C)[n+]2[O-] [Cmpd 5] | 10 µg/mL (≈ 31.3 µM) | > 32 µg/mL | >16 µg/mL | 27 µg/mL (≈ 84.6 µM) | 
CC(C)(C)Nc1n[n+]([O-])c2ccccc2[n+]1[O-] [Compound 8c, 3-(tert-butylamino)benzo[e][1,2,4]triazine 1,4-dioxide] | 1.2 µg/mL (≈ 5.12 µM) | 0.82 µg/mL (≈ 3.5 µM) | 8.0 µg/mL | 1.9 µg/mL (≈ 8.11 µM) | MIC (Mtb H37Rv [1]; Table 5, read-out: MIC, H37Rv): 2.5 µg/mL (≈ 10.7 µM)
[O-][n+]1nc(NC2CCCC2)[n+]([O-])c2ccccc21 [Compound 8e, 3-(cyclopentylamino)benzo[e][1,2,4]triazine 1,4-dioxide] | 2.5 µg/mL (≈ 10.2 µM) | 0.68 µg/mL (≈ 2.76 µM) | 10 µg/mL | 3.6 µg/mL (≈ 14.6 µM) | 
CCCC(C)Nc1n[n+]([O-])c2ccccc2[n+]1[O-] (centres unmarked) [Compound 8h, 3-(pentan-2-ylamino)benzo[e][1,2,4]triazine 1,4-dioxide] | 5 µg/mL (≈ 20.1 µM) | 0.99 µg/mL (≈ 3.99 µM) | 26 µg/mL | 1.9 µg/mL (≈ 7.65 µM) | 
C[C@@H](Nc1n[n+]([O-])c2ccccc2[n+]1[O-])C1CCCCC1 [Compound 8k, (R)-3-((1-cyclohexylethyl)amino)benzo[e][1,2,4]triazine 1,4-dioxide] | 1.2 µg/mL (≈ 4.16 µM) | 0.36 µg/mL (≈ 1.25 µM) | 8.9 µg/mL | 0.92 µg/mL (≈ 3.19 µM) | 
[O-][n+]1nc(N[C@@H]2C[C@H]3CC[C@@H]2C3)[n+]([O-])c2ccccc21 [Compound 8m, 3-((1R,2R,4S)-bicyclo[2.2.1]heptan-2-ylamino)benzo[e][1,2,4]triazine 1,4-dioxide] | 0.62 µg/mL (≈ 2.28 µM) | 0.42 µg/mL (≈ 1.54 µM) | 3.4 µg/mL | 0.6 µg/mL (≈ 2.2 µM) | 
[O-][n+]1nc(N[C@H]2[C@@H]3C[C@H]4C[C@@H](C3)C[C@@H]2C4)[n+]([O-])c2ccccc21 [Compound 8n, 3-((1R,3S,5r,7r)-adamantan-2-ylamino)benzo[e][1,2,4]triazine 1,4-dioxide] |  |  |  |  | TB MIC - SRI (Mtb H37Rv [1]; Tables 1-4 and text): 2.5 µg/mL; LORA MIC - ITR (NRP Mtb H37Rv cells; NRP Mtb, Tables 1-4 and text): 2.3 µg/mL; Vero Tox CC50 (Vero cells): 7.3 µg/mL; TB MIC - ITR (Mtb H37Rv [2]; Tables 1-4): 1.9 µg/mL
[O-][n+]1nc(NC2CC2)[n+]([O-])c2ccc(F)cc21 [Compound 15ab, 3-(cyclopropylamino)-7-fluorobenzo[e][1,2,4]triazine 1,4-dioxide] | 0.31 µg/mL (≈ 1.31 µM) |  | 1.3 µg/mL | 0.93 µg/mL (≈ 3.94 µM) | MIC (NRP Mtb H37Rv cells): 3.5 µg/mL (≈ 14.8 µM)
[O-][n+]1nc(NC2CCC2)[n+]([O-])c2ccc(F)cc21 [Compound 15ad, 3-(cyclobutylamino)-7-fluorobenzo[e][1,2,4]triazine 1,4-dioxide] | 0.31 µg/mL (≈ 1.24 µM) |  | 1.6 µg/mL | 0.4 µg/mL (≈ 1.6 µM) | MIC (NRP Mtb H37Rv cells): 0.88 µg/mL (≈ 3.52 µM)
[O-][n+]1nc(N[C@@H]2C[C@H]3CC[C@@H]2C3)[n+]([O-])c2ccc(F)cc21 [Compound 15am, 3-((1R,2R,4S)-bicyclo[2.2.1]heptan-2-ylamino)-7-fluorobenzo[e][1,2,4]triazine 1,4-dioxide] | 0.31 µg/mL (≈ 1.07 µM) | 0.21 µg/mL (≈ 0.723 µM) | <2.5 µg/mL | < 0.12 µg/mL | 
CCNc1n[n+]([O-])c2cc(Cl)ccc2[n+]1[O-] [Compound 15ba, 7-chloro-3-(ethylamino)benzo[e][1,2,4]triazine 1,4-dioxide] | 1.2 µg/mL (≈ 4.99 µM) | 0.41 µg/mL (≈ 1.7 µM) | 2.6 µg/mL | < 0.12 µg/mL | 
[O-][n+]1nc(NC2CC2)[n+]([O-])c2ccc(Cl)cc21 [Compound 15bb, 7-chloro-3-(cyclopropylamino)benzo[e][1,2,4]triazine 1,4-dioxide] | 0.62 µg/mL (≈ 2.45 µM) | 0.22 µg/mL (≈ 0.871 µM) | 1.3 µg/mL | 0.21 µg/mL (≈ 0.831 µM) | 
